According to US12071404B2, “Aza (indole)-, benzothiophene-, and benzofuran-3-sulfonamides” (UCB Pharma GmbH, priority 2016, dated 2024):

Key:
GPR17 [1] = molecular target: T1, GPR17 (Homo sapiens, UniProt Q13304); assay: cAMP accumulation functional assay (HTRF, Schild analysis); format: cell-based; parameters: host or cells: Flp-In T-REx CHO; settings: CHO hGPR17 cells, Schild analysis vs MDL29,951, 5 μM forskolin, read-out: cAMP assay pA2 (converted)
Procedure, shortened: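 CHO Flp-In T-REx cells with doxycycline-induced human GPR17 were preincubated 30 min at room temperature in HBSS-HEPES pH 7.4 with antagonist. cAMP was then measured by HTRF after 60 min. MDL29,951 pEC50 shifts gave dose ratios, and Schild analysis gave pA2.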

GPR17 [2] = molecular target: T1, GPR17; assay: Calcium mobilization functional assay (GPR17 Ca2+ assay); format: cell-based; parameters: host or cells: Flp-In T-REx CHO; settings: CHO hGPR17 cells, inhibition of 50 nM MDL29,951, Calcium 5 dye, FLIPR; read-out: Ca2+ assay pIC50 (converted)
Procedure, shortened: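 Flp-In T-REx CHO cells stably expressing human GPR17, doxycycline-induced (1 μg/mL, 16-20 h), loaded 60 min with Calcium 5 dye. Inhibition by varying test-compound concentrations of the 50 nM MDL29,951 agonist response was read by fluorescence over time at room temperature. pIC50 came from 4-parameter logistic fitting.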

T1 sequence (Q13304 whole entry): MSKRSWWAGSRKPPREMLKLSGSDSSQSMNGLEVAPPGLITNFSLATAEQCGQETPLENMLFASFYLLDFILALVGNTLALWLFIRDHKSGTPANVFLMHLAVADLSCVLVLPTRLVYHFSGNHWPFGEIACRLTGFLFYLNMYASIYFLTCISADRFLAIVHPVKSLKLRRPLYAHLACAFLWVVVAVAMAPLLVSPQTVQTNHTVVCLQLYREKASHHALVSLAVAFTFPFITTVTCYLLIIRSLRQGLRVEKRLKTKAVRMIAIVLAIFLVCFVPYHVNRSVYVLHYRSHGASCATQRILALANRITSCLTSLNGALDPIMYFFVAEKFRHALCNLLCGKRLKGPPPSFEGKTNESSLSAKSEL

| SMILES | Kb (GPR17 [1]) | IC50 (GPR17 [2]) |
| --- | --- | --- |
| COc1ccc2c(S(=O)(=O)Nc3cc(F)c(Cl)cc3F)c(F)[nH]c2c1 [Compound I-318, N-(4-chloro-2,5-difluorophenyl)-2-fluoro-6-methoxy-1H-indole-3-sulfonamide] | 3.16 to 31.6 nM | 3.16 to 31.6 nM |
| O=S(=O)(Nc1nc(F)c(Cl)cc1F)c1c[nH]c2c1ccc1ccccc12 [Compound I-304, N-(5-chloro-3,6-difluoropyridin-2-yl)-1H-benzo[g]indole-3-sulfonamide] | < 3.16 nM | < 3.16 nM |
| O=S(=O)(Nc1cccc2nsnc12)c1c[nH]c2c1ccc1ccccc12 [Compound I-155, N-(2,1,3-benzothiadiazol-4-yl)-1H-benzo[g]indole-3-sulfonamide] | < 3.16 nM | 3.16 to 31.6 nM |
| O=S(=O)(Nc1cc(F)c(Cl)cc1F)c1c[nH]c2cc(Cl)c(F)cc12 [Compound I-263, 6-chloro-N-(4-chloro-2,5-difluorophenyl)-5-fluoro-1H-indole-3-sulfonamide] | 3.16 to 31.6 nM | 3.16 to 31.6 nM |
| COc1nc(NS(=O)(=O)c2csc3cc(Cl)ccc23)c(F)cc1Cl [Compound I-314, 6-chloro-N-(5-chloro-3-fluoro-6-methoxypyridin-2-yl)-1-benzothiophene-3-sulfonamide] | 3.16 to 31.6 nM | 3.16 to 31.6 nM |
| O=S(=O)(Nc1cc(F)c(Br)cc1F)c1c[nH]c2cc(Cl)ccc12 [Compound I-213, N-(4-bromo-2,5-difluorophenyl)-6-chloro-1H-indole-3-sulfonamide] | < 3.16 nM | < 3.16 nM |
| O=S(=O)(Nc1cc(F)c(F)cc1F)c1c[nH]c2c1ccc1ccccc12 [Compound I-52, N-(2,4,5-trifluorophenyl)-1H-benzo[g]indole-3-sulfonamide] | 3.16 to 31.6 nM | > 31.6 nM |
| O=S(=O)(Nc1cc2c(cc1F)OC(F)(F)O2)c1c[nH]c2nc(Cl)ccc12 [Compound I-225, 6-chloro-N-(2,2,6-trifluoro-1,3-benzodioxol-5-yl)-1H-pyrrolo[2,3-b]pyridine-3-sulfonamide] | 3.16 to 31.6 nM | > 31.6 nM |
| COc1nc(NS(=O)(=O)c2c[nH]c3c(OC)c(Cl)ccc23)c(F)cc1Cl [Compound I-309, 6-chloro-N-(5-chloro-3-fluoro-6-methoxypyridin-2-yl)-7-methoxy-1H-indole-3-sulfonamide] | < 3.16 nM | < 3.16 nM |
| Cc1ccc2c(S(=O)(=O)Nc3ccc(Cl)cc3F)c[nH]c2c1 [Compound I-174, N-(4-chloro-2-fluorophenyl)-6-methyl-1H-indole-3-sulfonamide] | 3.16 to 31.6 nM | 3.16 to 31.6 nM |
| O=S(=O)(Nc1cc2c(cc1F)OC(F)(F)O2)c1c[nH]c2cc(Cl)ccc12 [Compound I-125, 6-chloro-N-(2,2,6-trifluoro-1,3-benzodioxol-5-yl)-1H-indole-3-sulfonamide] | 3.16 to 31.6 nM | 3.16 to 31.6 nM |
| COc1nc(NS(=O)(=O)c2c[nH]c3cc(N)ccc23)c(F)cc1CC#N [Compound I-352, 6-amino-N-[5-(cyanomethyl)-3-fluoro-6-methoxypyridin-2-yl]-1H-indole-3-sulfonamide] | 3.16 to 31.6 nM | 3.16 to 31.6 nM |
| N#Cc1ccc(NS(=O)(=O)c2c[nH]c3cc(Cl)c(F)cc23)c(F)c1 [Compound I-258, 6-chloro-N-(4-cyano-2-fluorophenyl)-5-fluoro-1H-indole-3-sulfonamide] | 3.16 to 31.6 nM | < 3.16 nM |
| N#Cc1ccc(NS(=O)(=O)c2c[nH]c3c(Br)c(Cl)ccc23)c(F)c1 [Compound I-341, 7-bromo-6-chloro-N-(4-cyano-2-fluorophenyl)-1H-indole-3-sulfonamide] | < 3.16 nM | < 3.16 nM |
| COc1cc(Cl)c(F)cc1NS(=O)(=O)c1c[nH]c2cc(Cl)ccc12 [Compound I-208, 6-chloro-N-(4-chloro-5-fluoro-2-methoxyphenyl)-1H-indole-3-sulfonamide] | 3.16 to 31.6 nM | > 31.6 nM |
| COc1nc(NS(=O)(=O)c2c[nH]c3c(F)c(Cl)ccc23)c(F)cc1Cl [Compound I-319, 6-chloro-N-(5-chloro-3-fluoro-6-methoxypyridin-2-yl)-7-fluoro-1H-indole-3-sulfonamide] | < 3.16 nM | < 3.16 nM |
| O=S(=O)(Nc1ccc2nonc2c1)c1c[nH]c2cc(Cl)ccc12 [Compound I-201, N-(2,1,3-benzoxadiazol-5-yl)-6-chloro-1H-indole-3-sulfonamide] | < 3.16 nM | > 31.6 nM |
| COc1nc(NS(=O)(=O)c2c[nH]c3cc(Cl)c(Br)cc23)c(F)cc1CC#N [Compound I-324, 5-bromo-6-chloro-N-[5-(cyanomethyl)-3-fluoro-6-methoxypyridin-2-yl]-1H-indole-3-sulfonamide] | < 3.16 nM | < 3.16 nM |
| COc1ccc2c(S(=O)(=O)Nc3cc(F)c(Br)cc3F)c[nH]c2c1 [Compound I-285, N-(4-bromo-2,5-difluorophenyl)-6-methoxy-1H-indole-3-sulfonamide] | < 3.16 nM | < 3.16 nM |

| SMILES | Kb (GPR17 [1]) | IC50 (GPR17 [2]) |
| --- | --- | --- |
| O=S(=O)(Nc1ccc(Br)cc1F)c1c[nH]c2cc(Cl)ccc12 [Compound I-212, N-(4-bromo-2-fluorophenyl)-6-chloro-1H-indole-3-sulfonamide] | < 3.16 nM | 3.16 to 31.6 nM |
| CS(=O)(=O)c1ccc2c(S(=O)(=O)Nc3ccc(C#N)cc3)c[nH]c2c1 [Compound I-14, N-(4-cyanophenyl)-6-(methylsulfonyl)-1H-indole-3-sulfonamide] | 3.16 to 31.6 nM | 3.16 to 31.6 nM |
| O=S(=O)(Nc1cc(F)ccc1F)c1c[nH]c2nc(Cl)ccc12 [Compound I-90, 6-chloro-N-(2,5-difluorophenyl)-1H-pyrrolo[2,3-b]pyridine-3-sulfonamide] | > 31.6 nM | > 31.6 nM |
| O=S(=O)(Nc1nc(F)c(OCCF)cc1F)c1c[nH]c2cc(Cl)ccc12 [Compound I-364, 6-chloro-N-[3,6-difluoro-5-(2-fluoroethoxy)pyridin-2-yl]-1H-indole-3-sulfonamide] | < 3.16 nM | < 3.16 nM |
| N#CCc1cc(F)c(NS(=O)(=O)c2c[nH]c3c2ccc2cccnc23)cc1F [Compound I-361, N-[4-(cyanomethyl)-2,5-difluorophenyl]-1H-pyrrolo[3,2-h]quinoline-3-sulfonamide] | < 3.16 nM | < 3.16 nM |
| O=S(=O)(Nc1ccc(C(F)(F)F)cc1F)c1c[nH]c2cc(Cl)ccc12 [Compound I-299, 6-chloro-N-[2-fluoro-4-(trifluoromethyl)phenyl]-1H-indole-3-sulfonamide] | < 3.16 nM | 3.16 to 31.6 nM |
| N#Cc1cc(F)c(NS(=O)(=O)c2c[nH]c3cc(OCc4ccccc4)ccc23)cc1F [Compound I-153, 6-(benzyloxy)-N-(4-cyano-2,5-difluorophenyl)-1H-indole-3-sulfonamide] | 3.16 to 31.6 nM | < 3.16 nM |
| N#CCOc1cc(F)c(NS(=O)(=O)c2c[nH]c3cc(Cl)ccc23)cc1F [Compound I-257, 6-chloro-N-[4-(cyanomethoxy)-2,5-difluorophenyl]-1H-indole-3-sulfonamide] | < 3.16 nM | < 3.16 nM |
| O=S(=O)(Nc1cc(F)c(OCC(F)F)cc1F)c1c[nH]c2cc(Cl)ccc12 [Compound I-246, 6-chloro-N-[4-(2,2-difluoroethoxy)-2,5-difluorophenyl]-1H-indole-3-sulfonamide] | < 3.16 nM | < 3.16 nM |
| Cc1cc(F)c(NS(=O)(=O)c2c[nH]c3cc(Cl)ccc23)nc1F [Compound I-348, 6-chloro-N-(3,6-difluoro-5-methylpyridin-2-yl)-1H-indole-3-sulfonamide] | 3.16 to 31.6 nM | < 3.16 nM |
| COc1nc(NS(=O)(=O)c2c[nH]c3c(F)c(Cl)ccc23)c(F)cc1F [Compound I-358, 6-chloro-N-(3,5-difluoro-6-methoxypyridin-2-yl)-7-fluoro-1H-indole-3-sulfonamide] | 3.16 to 31.6 nM | 3.16 to 31.6 nM |
| O=S(=O)(Nc1nc(F)ccc1F)c1c[nH]c2cc(Cl)ccc12 [Compound I-200, 6-chloro-N-(3,6-difluoropyridin-2-yl)-1H-indole-3-sulfonamide] | 3.16 to 31.6 nM | 3.16 to 31.6 nM |
| Cc1ccc(NS(=O)(=O)c2c[nH]c3cc(Cl)ccc23)c(F)c1 [Compound I-56, 6-chloro-N-(2-fluoro-4-methylphenyl)-1H-indole-3-sulfonamide] | 3.16 to 31.6 nM | > 31.6 nM |
| O=S(=O)(Nc1ccc(I)cn1)c1c[nH]c2cc(Cl)ccc12 [Compound I-280, 6-chloro-N-(5-iodopyridin-2-yl)-1H-indole-3-sulfonamide] | 3.16 to 31.6 nM | 3.16 to 31.6 nM |
| O=S(=O)(Nc1cc(F)c(Cl)cc1F)c1coc2cc(Cl)ccc12 [Compound I-198, 6-chloro-N-(4-chloro-2,5-difluorophenyl)-1-benzofuran-3-sulfonamide] | 3.16 to 31.6 nM | 3.16 to 31.6 nM |
| N#Cc1ccc(NS(=O)(=O)c2c[nH]c3cc(OCC4CC4)ccc23)c(F)c1 [Compound I-220, N-(4-cyano-2-fluorophenyl)-6-(cyclopropylmethoxy)-1H-indole-3-sulfonamide] | 3.16 to 31.6 nM | 3.16 to 31.6 nM |
| N#Cc1ccc(NS(=O)(=O)c2coc3cc(Cl)ccc23)cc1 [Compound I-139, 6-chloro-N-(4-cyanophenyl)-1-benzofuran-3-sulfonamide] | > 31.6 nM | 3.16 to 31.6 nM |
| O=S(=O)(Nc1cccc(F)c1Cl)c1c[nH]c2nc(Br)ccc12 [Compound I-83, 6-bromo-N-(2-chloro-3-fluoorphenyl)-1H-pyrrolo[2,3-b]pyridine-3-sulfonamide] | 3.16 to 31.6 nM | 3.16 to 31.6 nM |
